Assay [1] concerns the target T1, PDE4B2 (Homo sapiens, UniProt Q07343).
T1 construct: expressed in transfected cells; host or cells: Flp-In-293 (Flpin-293-PDE4B2 [sic])
Put plainly: PDE4B2 enzyme experiment (AMP-glo, cAMP substrate). It counts as biochemical. The conditions noted are these: for inhibition at 0.01 µM: read-out: PDE4B2 Enzyme Inhibition% @10 nM; for inhibition at 0.1 µM: read-out: PDE4B2 Enzyme Inhibition% @100 nM.
Experimental: All compounds were dissolved in DMSO into 10 mM or 20 mM stock solutions. The compound to be tested was diluted with DMSO in a 3-fold gradient. 20 nL/well of the compound or a DMSO control was transferred to a 384-well plate by using Echo 550 instrument. The plate was sealed with a membrane and centrifuged for 1 minute. A 2x enzyme solution was prepared with an assay buffer, and 2 uL/well of the 2x enzyme solution was added, followed by equilibration at room temperature for 10 minutes. A 2x Cyclic-3',5'-AMP substrate solution was prepared with an assay buffer, and 2 uL/well of the 2x substrate solution was added, followed by incubation at room temperature for 60 minutes. 4 uL of AMP-glo reagent was added, followed by incubation at room temperature for 60 minutes. 8 ul of an AMP detection solution was added, followed by incubation at room temperature for 60 minutes. An RLU value was read on Envision 2105 plate reader. The RLU value represents the concentration of the product AMP. Inhibition rate % ^= (1 - (RLUpositive control - RLUcompound)/(RLUpositive control - RLUnegative control)) * 100. The IC50 value was then caulculated by Graphpad 8.0 software using Y = Bottom + (Top - Bottom)/(1 + 10^((LogIC50 - X) * HillSlope)).

The target of assay [2] is T1, PDE4B2. Put plainly: PDE4B2 cell experiment (cAMP, Eu-cAMP tracer / Ulight-anti-cAMP). It counts as cell-based. As to conditions: Flpin-293-PDE4B2 cells; for inhibition at 0.01 µM / Cell Inhibition% @10 nM: 10 nM; for inhibition at 0.1 µM / Cell Inhibition% @100 nM: 100 nM; for pIC50: Foskolin; for Cell Inhibition% @1 nM / inhibition at 0.001 µM: 1 nM.

Consider 32 compounds from EP4678644A1, “SUBSTITUTED DIHYDROTHIENOPYRIMIDINE COMPOUND, PREPARATION METHOD THEREFOR, AND USE THEREOF” (Shanghai Yidi Biotechnology Co., Ltd., priority 2023, dated 2024).

Structures are written as SMILES. pIC50: −log10 of the molar value.

T1 sequence (Q07343 1-564 isoform Q07343-2): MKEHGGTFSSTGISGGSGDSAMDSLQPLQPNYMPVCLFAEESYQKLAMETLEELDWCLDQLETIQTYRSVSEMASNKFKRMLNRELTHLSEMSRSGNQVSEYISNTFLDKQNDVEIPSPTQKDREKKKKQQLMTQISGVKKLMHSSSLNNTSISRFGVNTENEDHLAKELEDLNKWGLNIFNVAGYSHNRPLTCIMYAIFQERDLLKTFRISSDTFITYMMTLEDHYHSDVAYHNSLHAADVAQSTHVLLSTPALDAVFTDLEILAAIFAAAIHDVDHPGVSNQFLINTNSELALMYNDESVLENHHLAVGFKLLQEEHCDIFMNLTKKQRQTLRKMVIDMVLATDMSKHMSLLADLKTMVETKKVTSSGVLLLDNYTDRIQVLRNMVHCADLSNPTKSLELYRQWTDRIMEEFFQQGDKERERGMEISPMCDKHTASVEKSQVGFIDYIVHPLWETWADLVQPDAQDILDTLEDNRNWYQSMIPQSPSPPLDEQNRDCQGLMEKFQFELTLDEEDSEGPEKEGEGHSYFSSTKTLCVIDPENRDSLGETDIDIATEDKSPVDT

For `[O-][S@@+]1CCc2nc(N3CCc4nn5cc(Cl)cnc5c4C3)nc(NC3(CO)CCC3)c21` [Compound 3], the pIC50 (in general, the IC50 on a negative log10 scale, so that one unit is a factor of ten) at PDE4B2 [1] was 6.03.

Regarding `[O-][S@+]1CCc2nc(N3Cc4nc5cc(Cl)ccn5c4C3)nc(NC3(CO)CCC3)c21` [Compound 8, (R)-2-(6-chloro-1,3-dihydro-2H-pyrrolo[3',4':4,5]imidazo[1,2-a]pyridin-2-yl)-4-((1-(hydroxymethyl)cyclobutyl)amino)-6,7-dihydrothieno[3,2-d]pyrimidine 5-oxide], on PDE4B2 [2], the inhibition (as a rule, the change of the read-out against control, counted positive when it falls) at 0.01 µM is 3.5% and the inhibition at 0.1 µM was found to be 15.1%. On PDE4B2 [1], the inhibition at 0.01 µM came out at 45% and the inhibition at 0.1 µM worked out at 94.1%.

For `[O-][S+]1CCc2nc(N3CCc4c(nn5cccc(Cl)c45)C3)nc(NC3(CO)CCC3)c21` (centres unmarked) [Compound 10], the pIC50 was 7.13 against PDE4B2 [2] and 8.64 against PDE4B2 [1].

With `[O-][S@+]1CCc2nc(N3CC[C@@H]4c5ccc(Cl)cc5CC[C@@H]4C3)nc(NC3(CO)CCC3)c21` [Compound 12, (R)-2-((4aS,10bS)-8-chloro-1,4,4a,5,6,10-hexahydrobenzo[f]isoquinolin-3(2H)-yl)-4-((1-(hydroxymethyl)cyclobutyl)amino)-6,7-dihydrothieno[3,2-d]pyrimidine 5-oxide], on PDE4B2 [2], the inhibition at 0.01 µM is 16% and the inhibition at 0.1 µM was determined as 7.46%. Besides, at PDE4B2 [1], the pIC50 is 7.81.

Take `[O-][S@+]1CCc2nc(N3CC[C@H]4c5ccc(Cl)cc5OC[C@@H]4C3)nc(NC3(CO)CCC3)c21` [Compound 13, (R)-2-((4aS,10bR)-8-chloro-1,4a,5,10b-tetrahydro-2H-chromeno[3,4-c]pyridin-3(4H)-yl)-4-((1-(hydroxymethyl)cyclobutyl)amino)-6,7-dihydrothieno[3,2-d]pyrimidine 5-oxide]: the pIC50 against PDE4B2 [2] is 6.25; against PDE4B2 [1], 8.19.

On to `[O-][S+]1CCc2nc(N3CCc4scnc4C3)nc(NC3(CO)CCC3)c21` (centres unmarked) [Compound 17], for which the pIC50 at PDE4B2 [1] is 6.33.

Take `[O-][S+]1CCc2nc(N3CCc4c(Cl)cccc4C3)nc(NC3(CO)CCC3)c21` (centres unmarked) [Compound 19]: the pIC50 on PDE4B2 [2] was 6.69; at PDE4B2 [1], 8.14.

For the compound `[O-][S+]1CCc2nc(N3CCc4ccc(Cl)cc4C3)nc(NC3(CO)CCC3)c21` (centres unmarked) [Compound 20], on PDE4B2 [2], the “Cell Inhibition% @10 nM” value is 14.18% and the “Cell Inhibition% @100 nM” value was 69.92%. The compound also showed a pIC50 on PDE4B2 [1] of 8.73.

Consider `[O-][S+]1CCc2nc(N3CCc4cccc(Cl)c4C3)nc(NC3(CO)CCC3)c21` (centres unmarked) [Compound 21], for which, at PDE4B2 [2], the “Cell Inhibition% @10 nM” value stood at 18.76% and the “Cell Inhibition% @100 nM” value is listed as 79.24%. Moreover, the pIC50 against PDE4B2 [1] is 8.68.

Turning to `[O-][S+]1CCc2nc(N3CCc4cc(F)ccc4C3)nc(NC3(CO)CCC3)c21` (centres unmarked) [Compound 23], the pIC50 against PDE4B2 [2] is 7.54; against PDE4B2 [1] it was 8.55.

For `Cn1cc2c(n1)CN(c1nc3c(c(NC4(CO)CCC4)n1)[S+]([O-])CC3)CC2` (centres unmarked) [Compound 30], at PDE4B2 [2], the “Cell Inhibition% @10 nM” value is reported as 11.30% and the “Cell Inhibition% @100 nM” value is recorded as 48.00%.

As for `Cn1cc2c(n1)CCN(c1nc3c(c(NC4(CO)CCC4)n1)[S+]([O-])CC3)C2` (centres unmarked) [Compound 31], the negative-log IC50 (pIC50) on PDE4B2 [1] is 8.13.

Regarding `[O-][S@+]1CCc2nc(N3CCc4c(Br)csc4C3)nc(NC3(CO)CCC3)c21` [Compound 54, (R)-2-(3-bromo-4,7-dihydrothieno[2,3-c]pyridin-6(5H)-yl)-4-((1-(hydroxymethyl)cyclobutyl)amino)-6,7-dihydrothieno[3,2-d]pyrimidine 5-oxide], the inhibition at 0.001 µM on PDE4B2 [1] (read-out: PDE4B2 Enzyme Inhibition% @1 nM) worked out at 9.28%. Besides, on PDE4B2 [1], the inhibition at 0.01 µM was 58.9% and the inhibition at 0.1 µM came to 96.6%.

Turning to `[O-][S+]1CCc2nc(N3CCc4cc(-c5ncco5)ccc4C3)nc(NC3(CO)CCC3)c21` (centres unmarked) [Compound 84], on PDE4B2 [2], the “Cell Inhibition% @1 nM” value was 32.85%, the “Cell Inhibition% @10 nM” value stood at 96.96% and the “Cell Inhibition% @100 nM” value worked out at 100.72%.

For `O=C1CCCN1c1ccc2c(c1)CCN(c1nc3c(c(NC4(CO)CCC4)n1)[S+]([O-])CC3)C2` (centres unmarked) [Compound 87], on PDE4B2 [2], the “Cell Inhibition% @1 nM” value turned out to be 2.90%, the “Cell Inhibition% @10 nM” value came to 31.33% and the “Cell Inhibition% @100 nM” value stood at 89.06%.

Consider `[O-][S+]1CCc2nc(N3CCc4cc(N5CC(F)(F)C5)ccc4C3)nc(NC3(CO)CCC3)c21` (centres unmarked) [Compound 88], for which, at PDE4B2 [2], the “Cell Inhibition% @1 nM” value amounted to 3.67%, the “Cell Inhibition% @10 nM” value is recorded as 28.76% and the “Cell Inhibition% @100 nM” value was 93.47%.

Take `[O-][S+]1CCc2nc(N3CCc4cc(F)c(F)cc4C3)nc(NC3(CO)CCC3)c21` (centres unmarked) [Compound 95]: at PDE4B2 [2], the “Cell Inhibition% @1 nM” value was -4.2%, the “Cell Inhibition% @10 nM” value came to 6.8% and the “Cell Inhibition% @100 nM” value is 66.7%.

`[O-][S+]1CCc2nc(N3CCc4cc(Cl)c(F)cc4C3)nc(NC3(CO)CCC3)c21` (centres unmarked) [Compound 96]: at PDE4B2 [2], the “Cell Inhibition% @1 nM” value was -2.7%, the “Cell Inhibition% @10 nM” value is given as 15.7% and the “Cell Inhibition% @100 nM” value turned out to be 84.8%.

Regarding `[O-][S+]1CCc2nc(N3CCC4=C(COc5ccccc54)C3)nc(NC3(CO)CCC3)c21` (centres unmarked) [Compound 97], on PDE4B2 [2], the “Cell Inhibition% @1 nM” value amounted to 1.66%, the “Cell Inhibition% @10 nM” value was 17.36% and the “Cell Inhibition% @100 nM” value stood at 86.54%.

Take `Nc1nc2cc(Cl)ccc2c2c1CN(c1nc3c(c(NC4(CO)CCC4)n1)[S+]([O-])CC3)CC2` (centres unmarked) [Compound 102]: at PDE4B2 [2], the “Cell Inhibition% @1 nM” value is recorded as -0.08%, the “Cell Inhibition% @10 nM” value worked out at 35.86% and the “Cell Inhibition% @100 nM” value is reported as 95.46%.

For `Cn1nc(Cl)c2c3c(cnc21)CN(c1nc2c(c(NC4(CO)CCC4)n1)[S+]([O-])CC2)CC3` (centres unmarked) [Compound 105], at PDE4B2 [2], the “Cell Inhibition% @1 nM” value is 7.53%, the “Cell Inhibition% @10 nM” value was 42.53% and the “Cell Inhibition% @100 nM” value amounted to 93.48%.

For the compound `[O-][n+]1cc2c(c3ccc(Cl)cc31)CCN(c1nc3c(c(NC4(CO)CCC4)n1)[S+]([O-])CC3)C2` (centres unmarked) [Compound 106], at PDE4B2 [2], the “Cell Inhibition% @1 nM” value was 0.41%, the “Cell Inhibition% @10 nM” value was 21.18% and the “Cell Inhibition% @100 nM” value is 67.52%.

In the case of `[O-][S+]1CCc2nc(N3CC[C@@H]4c5ccc(F)cc5OC[C@H]4C3)nc(NC3(CO)CCC3)c21` (some centres unmarked) [Compound 109], at PDE4B2 [2], the “Cell Inhibition% @1 nM” value amounted to 17.70%, the “Cell Inhibition% @10 nM” value is listed as 65.40% and the “Cell Inhibition% @100 nM” value was 97.85%.

On to `COc1ccc2c(c1)OC[C@H]1CN(c3nc4c(c(NC5(CO)CCC5)n3)[S+]([O-])CC4)CC[C@H]21` (some centres unmarked) [Compound 110], for which, on PDE4B2 [2], the “Cell Inhibition% @1 nM” value stood at 18.98%, the “Cell Inhibition% @10 nM” value was 76.13% and the “Cell Inhibition% @100 nM” value came out at 100.03%.

Consider `[O-][S+]1CCc2nc(N3CC[C@@H]4c5ccc(C(F)(F)F)cc5OC[C@H]4C3)nc(NC3(CO)CCC3)c21` (some centres unmarked) [Compound 111], for which, at PDE4B2 [2], the “Cell Inhibition% @1 nM” value was found to be 8.07%, the “Cell Inhibition% @10 nM” value is on record as 22.21% and the “Cell Inhibition% @100 nM” value was determined as 81.06%.

As to `Cc1ccc2c(c1)OC[C@H]1CN(c3nc4c(c(NC5(CO)CCC5)n3)[S+]([O-])CC4)CC[C@H]21` (some centres unmarked) [Compound 112], on PDE4B2 [2], the “Cell Inhibition% @1 nM” value is 12.30%, the “Cell Inhibition% @10 nM” value came out at 54.08% and the “Cell Inhibition% @100 nM” value is 99.44%.

As for `[O-][S@+]1CCc2nc(N3CC[C@@H]4c5ccncc5OC[C@H]4C3)nc(NC3(CO)CCC3)c21` [Compound 113, (R)-4-((1-(hydroxymethyl)cyclobutyl)amino)-2-((6aR,10aS)-6a,9,10,10-tetrahydro-6H-pyrano[2,3-c:5,4-c']dipyridin-8(7H)-yl)-6,7-dihydrothieno[3,2-d]pyrimidine 5-oxide], on PDE4B2 [2], the inhibition at 0.001 µM was 5.01%, the inhibition at 0.01 µM worked out at 22.8% and the inhibition at 0.1 µM was 71.9%.

Consider `[O-][S@+]1CCc2nc(N3CC[C@H]4c5ncc(Cl)cc5OC[C@@H]4C3)nc(NC3(CO)CCC3)c21` [Compound 114, (R)-2-((6aS,10aR)-3-chloro-6a,9,10,10-tetrahydro-6H-pyrano[3,2-b:5,4-c']dipyridin-8(7H)-yl)-4-((1-(hydroxymethyl)cyclobutyl)amino)-6,7-dihydrothieno[3,2-d]pyrimidine 5-oxide], for which, at PDE4B2 [2], the inhibition at 0.001 µM is -1.54%, the inhibition at 0.01 µM was 8.74% and the inhibition at 0.1 µM stood at 54.5%.

As to `[O-][S+]1CCc2nc(N3CC[C@@H]4c5ccc(Br)cc5OC[C@H]4C3)nc(NC3(CO)CCC3)c21` (some centres unmarked) [Compound 115], on PDE4B2 [2], the “Cell Inhibition% @1 nM” value came to 7.72%, the “Cell Inhibition% @10 nM” value worked out at 39.69% and the “Cell Inhibition% @100 nM” value was determined as 97.73%.

`[O-][S+]1CCc2nc(N3CC[C@H]4c5cnc(Cl)cc5OC[C@@H]4C3)nc(NC3(CO)CCC3)c21` (some centres unmarked) [Compound 117]: at PDE4B2 [2], the “Cell Inhibition% @1 nM” value is 5.32%, the “Cell Inhibition% @10 nM” value was determined as 17.32% and the “Cell Inhibition% @100 nM” value stood at 61.63%.

Turning to `[O-][S@+]1CCc2nc(N3CCc4c(ccc5[nH]ncc45)C3)nc(NC3(CO)CCC3)c21` [Compound 118, (R)-4-((1-(hydroxymethyl)cyclobutyl)amino)-2-(3,6,8,9-tetrahydro-7H-pyrazolo[4,3-f]isoquinolin-7-yl)-6,7-dihydrothieno[3,2-d]pyrimidine 5-oxide], on PDE4B2 [2], the inhibition at 0.001 µM stood at 11.1%, the inhibition at 0.01 µM worked out at 41.7% and the inhibition at 0.1 µM came out at 89%.

Take `[O-][S@+]1CCc2nc(N3CCc4cc(N5CCCC5)cnc4C3)nc(NC3(CO)CCC3)c21` [Compound 184, (R)-4-((1-(hydroxymethyl)cyclobutyl)amino)-2-(3-(pyrrolidin-1-yl)-5,8-dihydro-1,7-naphthyridin-7(6H)-yl)-6,7-dihydrothieno[3,2-d]pyrimidine 5-oxide]: on PDE4B2 [2], the inhibition at 0.001 µM is 36.5%, the inhibition at 0.01 µM was 94.3% and the inhibition at 0.1 µM was 100%.
